The target in the assay is T1, human GlyT1c transporter (Homo sapiens, UniProt P48067).
T1 construct: expressed in transfected cells; host or cells: CHO cells (recombinant; line hGlyT1c_5_CHO is named for the uptake assay)
T1 sequence (P48067 1-706): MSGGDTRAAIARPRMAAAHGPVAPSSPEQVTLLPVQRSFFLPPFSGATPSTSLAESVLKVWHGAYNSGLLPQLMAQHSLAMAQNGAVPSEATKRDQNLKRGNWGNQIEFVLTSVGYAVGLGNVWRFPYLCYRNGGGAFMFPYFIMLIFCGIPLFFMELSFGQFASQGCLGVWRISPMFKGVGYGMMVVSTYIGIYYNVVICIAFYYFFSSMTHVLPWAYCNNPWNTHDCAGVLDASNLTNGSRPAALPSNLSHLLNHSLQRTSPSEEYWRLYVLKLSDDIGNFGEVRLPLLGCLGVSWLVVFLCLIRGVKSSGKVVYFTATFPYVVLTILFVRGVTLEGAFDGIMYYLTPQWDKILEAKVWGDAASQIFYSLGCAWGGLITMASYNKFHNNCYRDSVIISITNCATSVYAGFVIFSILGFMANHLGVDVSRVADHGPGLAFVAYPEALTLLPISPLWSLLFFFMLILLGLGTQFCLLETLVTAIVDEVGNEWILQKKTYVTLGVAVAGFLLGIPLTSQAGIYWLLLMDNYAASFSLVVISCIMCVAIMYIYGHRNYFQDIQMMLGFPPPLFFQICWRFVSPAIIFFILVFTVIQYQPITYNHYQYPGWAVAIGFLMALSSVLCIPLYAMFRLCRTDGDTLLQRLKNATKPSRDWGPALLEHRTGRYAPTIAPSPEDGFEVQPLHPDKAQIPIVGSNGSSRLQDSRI
The assay can be described thus: Radioligand binding assay using recombinant CHO cell membranes expressing human GlyT1. The source says:
2. Radioligand binding assays using recombinant CHO cell membranes expressing human GlyT1: […]

The mark [1] stands for this setting: radioligand binding to human GlyT1c transporter-expressing membranes.

SMILES strings stand for the structures. Where only a bound is given, the exact number is not on record here.

The term Ki denotes the equilibrium dissociation constant of an inhibitor or competing ligand from its target. `Cn1cnc(S(=O)(=O)N2C[C@@H](NCc3ccc(C(F)(F)F)cc3Cl)[C@H](c3ccc(F)cc3)C2)c1` (relative stereo) [Example 150, trans-N-[2-chloro-4-(trifluoromethyl)benzyl]-4-(4-fluorophenyl)-1-[(1-methyl-1H-imidazol-4-yl)sulfonyl]pyrrolidin-3-amine]: under setting [1], the inhibitory constant (Ki) is no more than 0.001 µM.
Turning to `Cn1cnc(S(=O)(=O)N2C[C@H](Nc3ccc(Cl)c(C(F)(F)F)c3)[C@@H](C3CCCO3)C2)c1` (stereo partly drawn) [Example 619, (3R,4S)-N-[4-chloro-3-(trifluoromethyl)phenyl]-1-[(1-methyl-1H-imidazol-4-yl)sulfonyl]-4-(tetrahydrofuran-2-yl)pyrrolidin-3-amine], under setting [1], the inhibition constant (Ki) is no more than 1 µM.
As for `CCCNC[C@@H]1CN(S(=O)(=O)c2cn(C)cn2)C[C@H]1c1ccc(F)cc1` (relative stereo) [Example 594, N-({trans-4-(4-fluorophenyl)-1-[(1-methyl-1H-imidazol-4-yl)sulfonyl]pyrrolidin-3-yl}methyl)propan-1-amine], the Ki under setting [1] was no more than 10 µM.
On the same count and under the same terms, the figure for `Cn1cnc(S(=O)(=O)N2C[C@H](NC(=O)Nc3ccccc3)[C@@H](c3ccc(F)cc3)C2)c1` [Example 692, 1-{(3R,4S)-4-(4-fluorophenyl)-1-[(1-methyl-1H-imidazol-4-yl)sulfonyl]pyrrolidin-3-yl}-3-phenylurea] is no more than 1 µM.
In the case of `Cn1cnc(S(=O)(=O)N2C[C@@H](C(=O)Nc3ccc(C(F)(F)F)c(Cl)c3)[C@H](c3ccc(F)cc3)C2)c1` (relative stereo) [Example 276, trans-N-[3-chloro-4-(trifluoromethyl)phenyl]-4-(4-fluorophenyl)-1-[(1-methyl-1H-imidazol-4-yl)sulfonyl]pyrrolidine-3-carboxamide], the Ki under setting [1] was no more than 1 µM.
Consider `Cn1cnc(S(=O)(=O)N2C[C@H](NCc3sccc3Cl)[C@@H](c3ccccc3)C2)c1` [Example 553, (3R,4S)-N-[(3-chlorothiophen-2-yl)methyl]-1-[(1-methyl-1H-imidazol-4-yl)sulfonyl]-4-phenylpyrrolidin-3-amine], for which, under setting [1], the Ki is no more than 1 µM.
For the compound `Cn1cnc(S(=O)(=O)N2C[C@@H](Nc3ccncc3)[C@H](c3ccccc3)C2)c1` (relative stereo) [Example 209, N-{trans-1-[(1-methyl-1H-imidazol-4-yl)sulfonyl]-4-phenylpyrrolidin-3-yl}pyridin-4-amine], the inhibition constant (Ki) under setting [1] is no more than 10 µM.
For `Cn1cnc(S(=O)(=O)N2C[C@@H](Nc3ccc(Cl)c(Cl)c3)[C@H](c3ccc(F)cc3)C2)c1` (relative stereo) [Example 161, trans-N-(3,4-dichlorophenyl)-4-(4-fluorophenyl)-1-[(1-methyl-1H-imidazol-4-yl)sulfonyl]pyrrolidin-3-amine], the Ki under setting [1] was no more than 1 µM.
As to `Cn1cnc(S(=O)(=O)N2C[C@H](NCCCC(F)(F)F)[C@@H](c3ccccc3)C2)c1` [Example 426, (3R,4S)-1-[(1-methyl-1H-imidazol-4-yl)sulfonyl]-4-phenyl-N-(4,4,4-trifluorobutyl)pyrrolidin-3-amine], the Ki under setting [1] is no more than 1 µM.
Take `CC(C)c1cc(N[C@H]2CN(S(=O)(=O)c3cn(C)cn3)C[C@@H]2c2ccc(F)cc2)ncn1` [Example 614, N-{(3R,4S)-4-(4-fluorophenyl)-1-[(1-methyl-1H-imidazol-4-yl)sulfonyl]pyrrolidin-3-yl}-6-(propan-2-yl)pyrimidin-4-amine]: under setting [1], the Ki is no more than 1 µM.
Regarding `Cn1cnc(S(=O)(=O)N2C[C@H](NCc3scnc3Cl)[C@@H](c3ccccc3)C2)c1` [Example 565, (3R,4S)-N-[(4-chloro-1,3-thiazol-5-yl)methyl]-1-[(1-methyl-1H-imidazol-4-yl)sulfonyl]-4-phenylpyrrolidin-3-amine], the inhibition constant Ki under setting [1] is no more than 10 µM.
As to `Cn1cnc(S(=O)(=O)N2C[C@@H](Nc3cccc(C(F)(F)F)c3)[C@H](C3CCCCO3)C2)c1` (relative stereo) [Example 681, Trans-1-[(1-methyl-1H-imidazol-4-yl)sulfonyl]-4-(tetrahydro-2H-pyran-2-yl)-N-[3-(trifluoromethyl)phenyl]pyrrolidin-3-amine], the inhibitory constant (Ki) under setting [1] was no more than 0.01 µM.
Regarding `Cc1cc(N[C@@H]2CN(S(=O)(=O)c3cn(C)cn3)C[C@H]2C2CCCO2)ncc1F` (relative stereo) [Example 851, 5-Fluoro-4-methyl-N-[trans-1-[(1-methyl-1H-imidazol-4-yl)sulfonyl]-4-(tetrahydrofuran-2-yl)pyrrolidin-3-yl]pyridin-2-amine], the Ki (radioligand binding, recombinant CHO cell membranes expressing human GlyT1c) is no more than 10 µM.
On to `Cn1cnc(S(=O)(=O)N2C[C@@H](Nc3cccc(F)n3)[C@H](c3ccccc3)C2)c1` (relative stereo) [Example 235, 6-fluoro-N-{trans-1-[(1-methyl-1H-imidazol-4-yl)sulfonyl]-4-phenylpyrrolidin-3-yl}pyridin-2-amine], for which the Ki under setting [1] is no more than 10 µM.
With `CCCOC(=O)N[C@H]1CN(S(=O)(=O)c2cn(C)cn2)C[C@@H]1c1ccccc1` [Example 542, propyl {(3R,4S)-1-[(1-methyl-1H-imidazol-4-yl)sulfonyl]-4-phenylpyrrolidin-3-yl}carbamate], the Ki under setting [1] is no more than 10 µM.
Same read-out and setting: the figure for `Cn1cnc(S(=O)(=O)N2C[C@H](Nc3cccc(Cl)c3)[C@@H](c3ccc(F)cc3)C2)c1` [Example 328, (3R,4S)-N-(3-chlorophenyl)-4-(4-fluorophenyl)-1-[(1-methyl-1H-imidazol-4-yl)sulfonyl]pyrrolidin-3-amine] is no more than 0.1 µM; for `Cn1cnc(S(=O)(=O)N2C[C@@H](COc3ccc(Cl)c(C(F)(F)F)c3)[C@H](c3ccc(F)cc3)C2)c1` (relative stereo) [Example 249, 4-{[trans-3-{[4-chloro-3-(trifluoromethyl)phenoxy]methyl}-4-(4-fluorophenyl)pyrrolidin-1-yl]sulfonyl}-1-methyl-1H-imidazole] it is no more than 1 µM; for `CCOCCN[C@H]1CN(S(=O)(=O)c2cn(C)cn2)C[C@@H]1c1ccccc1` [Example 608, (3R,4S)-N-(2-ethoxyethyl)-1-[(1-methyl-1H-imidazol-4-yl)sulfonyl]-4-phenylpyrrolidin-3-amine] it is no more than 10 µM.
In the case of `Cn1cnc(S(=O)(=O)N2C[C@@H](COc3ccc(F)c(Cl)c3)[C@H](c3ccc(F)cc3)C2)c1` (relative stereo) [Example 318, 4-{[Trans-3-[(3-chloro-4-fluorophenoxy)methyl]-4-(4-fluorophenyl)pyrrolidin-1-yl]sulfonyl}-1-methyl-1H-imidazole], the Ki under setting [1] was no more than 1 µM.
Consider `Cn1nccc1S(=O)(=O)N1C[C@@H](NC(=O)c2cccc(C(F)(F)F)c2Cl)[C@H](c2ccccc2)C1` (relative stereo) [Example 47, 2-chloro-N-{trans-1-[(1-methyl-1H-pyrazol-5-yl)sulfonyl]-4-phenylpyrrolidin-3-yl}-3-(trifluoromethyl)benzamide], for which the Ki under setting [1] was no less than 10 µM.
As to `Cc1cc(N[C@@H]2CN(S(=O)(=O)c3cn(C)cn3)C[C@H]2c2ncccc2F)ccc1F` (relative stereo) [Example 775, Trans-N-(4-fluoro-3-methylphenyl)-4-(3-fluoropyridin-2-yl)-1-[(1-methyl-1H-imidazol-4-yl)sulfonyl]pyrrolidin-3-amine], the Ki under setting [1] was no more than 1 µM.
`Cn1cnc(S(=O)(=O)N2C[C@@H](NCc3cccnc3)[C@H](c3ccc(F)cc3)C2)c1` (relative stereo) [Example 269, trans-4-(4-fluorophenyl)-1-[(1-methyl-1H-imidazol-4-yl)sulfonyl]-N-(pyridin-3-ylmethyl)pyrrolidin-3-amine]: the inhibitory constant (Ki) under setting [1] is no more than 10 µM.
On the same count and under the same terms, under `Cn1cnc(S(=O)(=O)N2C[C@H](Nc3cnc(C4CC4)cn3)[C@@H](c3ccccc3)C2)c1` [Example 410, 5-cyclopropyl-N-{(3R,4S)-1-[(1-methyl-1H-imidazol-4-yl)sulfonyl]-4-phenylpyrrolidin-3-yl}pyrazin-2-amine] stands no more than 10 µM; under `Cn1cnc(S(=O)(=O)N2CC(Nc3cccnn3)C(c3ccc(F)cc3)C2)c1` (stereo not drawn) [Example 350, N-{4-(4-fluorophenyl)-1-[(1-methyl-1H-imidazol-4-yl)sulfonyl]pyrrolidin-3-yl}pyridazin-3-amine], greater than 10 µM.
Same read-out and setting: the figure for `Cn1cnc(S(=O)(=O)N2C[C@H](NCc3cccc(C(F)(F)F)n3)[C@@H](c3ccccc3)C2)c1` [Example 552] is no more than 10 µM; for `COCCCN[C@H]1CN(S(=O)(=O)c2cn(C)cn2)C[C@@H]1c1ccccc1` [Example 588, (3R,4S)-N-(3-methoxypropyl)-1-[(1-methyl-1H-imidazol-4-yl)sulfonyl]-4-phenylpyrrolidin-3-amine] it is no more than 10 µM.
For `Cn1cnc(S(=O)(=O)N2C[C@@H](CNc3cccc(Cl)c3)[C@H](c3ccc(F)cc3)C2)c1` (relative stereo) [Example 333, 3-Chloro-N-({trans-4-(4-fluorophenyl)-1-[(1-methyl-1H-imidazol-4-yl)sulfonyl]pyrrolidin-3-yl}methyl)aniline], the inhibitory constant (Ki) under setting [1] was no more than 1 µM.

The values are drawn from patent EP2970215B1, “PYRROLIDINE DERIVATIVES, PHARMACEUTICAL COMPOSITIONS CONTAINING THEM, AND THEIR USE IN THERAPY” (AbbVie Deutschland GmbH & Co. KG, priority 2013, dated 2014).
